From patent publication US20040236110A1, “Substituted 3-pyridyl indoles and indazoles as c17,20 lyase inhibitors” (priority 2001, published 2004) come the findings set out here.

As to `N#Cc1ccccc1-n1ccc2cc(-c3cccnc3)ccc21` [Example 58, 1-(2-Cyanophenyl)-5-(3-pyridyl)-1H-indole], the melting point lay in the range of 138 to 141 °C.

As a reminder, the melting point is the temperature of the solid-liquid transition.
